# Test results taken from patent US8178506B2, “Oligomeric compounds and compositions for use in modulation of small non-coding RNAs” (Regulus Therapeutics Inc., priority 2003, dated 2012).
# In the oligonucleotide strings, read from the 5' end, every base follows the letter of its sugar. An asterisk marks phosphorothioate; unmarked linkages are phosphodiester. Other units and linkages are bracketed, terminal groups are in braces. A string of capitals states the bases alone. e = 2'-O-(2-methoxyethyl) (MOE); [5mC] = 5-methylcytosine; d = 2'-deoxy (DNA)
# Assays:
# [1] = tested on: HuVECs; assay: Endothelial tube formation assay in HuVECs; conditions: 75 nM oligomeric compound, Table 56
# [2] = tested on: BJ, B16-F10, T47D, T47Dp53 and HeLa cells; assay: Cell cycle assay (propidium iodide flow cytometry), cell line panel; type: cell-based; conditions: 150 nM oligomeric compound, 4.5 μg/ml LIPOFECTIN, after 72 hours, propidium iodide flow cytometry
# [3] = tested on: PEPCK-c; assay: PEPCK-c mRNA expression in HepG2 cells; type: cell-based, human; conditions: Experiment 2, insulin treated: HepG2 cells transfected with oligomeric compound, 1 nM insulin for four hours; UTC + 1 nM insulin = 100
# Experimental: (§1) Approximately 28 hours after transfection, the cells are subjected to serum starvation for a period of 12 to 16 hours, using serum-free growth medium. Following serum starvation, cells are treated with 1 nM insulin (insulin-treated) or are left untreated (basal conditions) for approximately four hours. At the same time, untreated control cells in both plates are treated with 100 nM insulin to determine the maximal insulin response. Following insulin treatment (forty-eight hours after transfection), total RNA is harvested from all samples, and the amount of total RNA from each sample is determined using a Ribogreen assay (Invitrogen Corporation, Carlsbad, Calif.). Real-time PCR is performed on the total RNA samples using primer/probe sets for three insulin responsive genes: insulin-like growth factor binding protein-1 (IGFBP-1), cytosolic PEPCK (PEPCK-C), and follistatin. Gene expression levels obtained by real-time PCR are normalized for total RNA content in the samples.
# (§2) Oligomeric compounds of the present invention were tested for their effects on insulin signaling in HepG2 cells. HepG2 cells were plated at 7500 cells/well in collagen coated 96-well plates. The following day, cells were transfected with oligomeric compounds targeting miRNAs using 100 nM oligomeric compound in LIPOFECTIN™ (Invitrogen Corporation, Carlsbad, Calif.) in two 96-well plates. The oligomeric compounds were tested in triplicate on each 96-well plate, except for positive and negative controls, which were measured up to six times per plate. At the end of transfection, the transfection medium was replaced by regular growth medium. Twenty-eight hours post-transfection, the cells were subjected to overnight (sixteen to eighteen hours) serum starvation using serum free growth medium. Forty-four hours post-transfection, the cells in the transfected wells were treated with either no insulin (“basal” Experiment 1, for identification of insulin-mimetic compounds) or with 1 nM insulin (“insulin treated” Experiment 2, for identification of insulin sensitizers) for four hours. At the same time, in both plates, cells in some of the un-transfected control wells are treated with 100 nM insulin to determine maximal insulin response. At the end of the insulin or no-insulin treatment (forty-eight hours post-transfection), total RNA is isolated from both the basal and insulin treated (1 nM) 96-well plates, and the amount of total RNA from each sample is determined using a Ribogreen assay (Molecular Probes, Eugene, Oreg.). Real-time PCR is performed on all the total RNA samples using primer/probe sets for three insulin responsive genes: PEPCK-c, IGFBP-1 and follistatin. Expression levels for each gene are normalized to total RNA, and values+standard deviation are expressed relative to the transfectant only untreated control (UTC) and negative control compounds.
# (§3) Protocols for treatment of HepG2 cells and transfection of oligomeric compounds are as described in Example 18. Also as described in Example 18, forty-four hours post-transfection, the cells in the transfected wells were treated with either no insulin (“basal” Experiment 3 (below), for identification of insulin-mimetic compounds) or with 1 nM insulin (“insulin treated” Experiment 4 (below), for identification of insulin sensitizers) for four hours. At the same time, in both plates, cells in some of the un-transfected control wells are treated with 100 nM insulin to determine maximal insulin response. At the end of the insulin or no-insulin treatment (forty-eight hours post-transfection), total RNA is isolated from both the basal and insulin treated (1 nM) 96-well plates, and the amount of total RNA from each sample is determined using a Ribogreen assay (Molecular Probes, Eugene, Oreg.).
# [4] = tested on: HeLa cells; assay: Cell cycle assay in HeLa cells; type: cell-based, human; conditions: HeLa cells
# [5] = tested on: follistatin; assay: Follistatin mRNA expression in HepG2 cells; type: cell-based, human; conditions: Experiment 2, insulin treated: HepG2 cells transfected with oligomeric compound, 1 nM insulin for four hours; UTC + 1 nM insulin = 100
# Experimental: as §1, §2, §3
# [6] = tested on: IGFBP-1; assay: IGFBP-1 mRNA expression in HepG2 cells; type: cell-based, human; conditions: Experiment 2, insulin treated: HepG2 cells transfected with oligomeric compound, 1 nM insulin for four hours; UTC + 1 nM insulin = 100
# Experimental: as §1, §2, §3
# [7] = tested on: T47D cells; assay: Caspase-3 activity assay (apoptosis) in T47D cells; conditions: T47D cells, 200 nM, 48 hours, relative to untreated control
# [8] = 150 nM oligomeric compound, 24 hours, relative to untreated control (UTC = 100)
# [9] = 150 nM oligomeric compound, 48 hours after treatment, relative to untreated control (UTC=100)
# [10] = 150 nM, 48 hours, relative to untreated control
substance,measurement,setting,value
327875 (antisense eA*e[5mC]*eA*eA*e[5mC]*e[5mC]*eA*eG*e[5mC]*eT*eA*eA*eG*eA*e[5mC]*eA*e[5mC]*eT*eG*e[5mC]*e[5mC]*eA) [compound 327875],% Activity Relative to UTC (tube formation),[1],71.4%
327882 (antisense eT*e[5mC]*eA*e[5mC]*eT*eT*eT*eT*eG*eT*eG*eA*e[5mC]*eT*eA*eT*eG*e[5mC]*eA*eA) [compound 327882],% Activity Relative to UTC (tube formation),[1],107.1%
327884 (antisense eG*e[5mC]*eA*eA*eA*eA*eA*eT*eG*eT*eG*e[5mC]*eT*eA*eG*eT*eG*e[5mC]*e[5mC]*eA*eA*eA) [compound 327884],% Activity Relative to UTC (tube formation),[1],78.6%
327894 (antisense eA*eT*eA*e[5mC]*eA*eT*eA*e[5mC]*eT*eT*e[5mC]*eT*eT*eT*eA*e[5mC]*eA*eT*eT*e[5mC]*e[5mC]*eA) [compound 327894],% Activity Relative to UTC (tube formation),[1],100.0%
328342 (e[5mC]*eA*eA*eT*eT*dG*d[5mC]*dG*d[5mC]*dT*dA*d[5mC]*dA*dG*dA*eA*e[5mC]*eT*eG*eT) [compound 328342],G1 (percentage of cells in phase of the cell cycle),[2],62.3%
same,G2/M (percentage of cells in phase of the cell cycle),[2],12.8%
same,S (percentage of cells in phase of the cell cycle),[2],24.9%
same,SubG1 (percentage of cells in phase of the cell cycle),[2],4.8%
same,aneuploid (percentage of cells),[2],15.2%
same,PEPCKc mRNA expression,[3],39
same,% cells aneuploid,[4]; [8],67%
same,% cells in cell cycle phase G1,[4]; [8],33%
same,% cells in cell cycle phase G2/M,[4]; [8],238%
same,% cells in cell cycle phase S,[4]; [8],95%
same,% cells in cell cycle phase subG1,[4]; [8],192%
same,% cells in cell cycle phase: G1,[4]; [9],55%
same,% cells in cell cycle phase: G2/M,[4]; [9],225%
same,% cells in cell cycle phase: S,[4]; [9],115%
same,% cells in cell cycle phase: aneuploid,[4]; [9],107%
same,% cells in cell cycle phase: subG1,[4]; [9],189%
same,% cells in cell cycle phase G1,[4]; [10],96%
same,% cells in cell cycle phase G2/M,[4]; [10],138%
same,% cells in cell cycle phase S,[4]; [10],89%
same,% cells in cell cycle phase aneuploid,[4]; [10],96%
same,% cells in cell cycle phase subG1,[4]; [10],103%
same,Follistatin mRNA expression,[5],88
same,IGFBP1 mRNA expression,[6],98
328377 (eT*e[5mC]*eA*e[5mC]*eT*d[5mC]*d[5mC]*dT*dA*dA*dA*dG*dG*dT*dT*e[5mC]*eA*eA*eG*eT; antisense) [compound 328377],Fold Increase over UTC (caspase activity),[7],0.7
same,PEPCKc mRNA expression,[3],182
same,Follistatin mRNA expression,[5],159
same,IGFBP1 mRNA expression,[6],247
